Test system: HCV pseudoparticles (genotype 1a HCV E1 and E2 envelope, H77C isolate)
Assay: microbe, parasite or virus in culture
Assay type: cell-based
Conditions: Hepatitis C virus, Huh-7, 48 h, HCV pseudoparticle infection of Huh7 cells, luciferase 2 days after infection; average of duplicates

Structure (SMILES)	EC50
CCOC(=O)[C@H](CCNC(=O)C(=O)N(C)C)NC(=O)c1ccc(Nc2nc(NC3(c4ccc(Cl)cc4)CC3)nc(OCC(F)(F)F)n2)cc1 [Compound 1026, (S)-ethyl 2-(4-(4-(1-(4-chlorophenyl)cyclopropylamino)-6-(2,2,2-trifluoroethoxy)-1,3,5-triazin-2-ylamino)benzamido)-4-(2-(dimethylamino)-2-oxoacetamido)butanoate]	2.68 nM
COc1ccc(CNC(=O)C(=O)NC[C@H](NC(=O)c2ccc(Nc3nc(NC4(c5ccc(Cl)cc5)CC4)nc(OCC(F)(F)F)n3)cc2)C(=O)O)c(OC)c1 [Compound 1172]	9.26 nM

Same assay, conditions: Hepatitis C virus, Huh-7, 48 h, HCV pseudoparticles (genotype 1a, H77C) in Huh7 cells; average of duplicate; luciferase 2 days after infection

Structure (SMILES)	EC50
O=C(NC/C(=N/C(=O)c1ccc(Nc2nc(NC3(c4ccc(Cl)cc4)CC3)nc(OCC(F)(F)F)n2)cc1)C(=O)O)C(=O)Nc1ccc(OCC(F)(F)F)cc1 [Compound 3164]	0.68 nM
COC(=O)[C@H](CCNC(=O)C(=O)Nc1ccc(OC2CCOCC2)cc1)NC(=O)c1ccc(Nc2nc(NC3(c4ccc(Cl)cc4)CC3)nc(OCC(F)(F)F)n2)cc1 [Compound 3325]	2.4 nM
Cc1ccc(NC(=O)C(=O)N(C)CCCN(C)C(=O)c2ccc(Nc3nc(NC4(c5ccc(Cl)cc5)CC4)nc(OCC(F)(F)F)n3)cc2)cc1 [Compound 3406]	1.91 nM
Cc1ccc(NC(=O)C(=O)NCC(C)(C)CNC(=O)c2ccc(Nc3nc(NC4(c5ccc(Cl)cc5)CC4)nc(OCC(F)(F)F)n3)cc2F)cc1 [Compound 3554]	0.029 nM

Same assay, conditions: Hepatitis C virus, Huh-7, 48 h, HCV pseudoparticles, Huh7 cells, luciferase 2 days after infection; average of duplicates

Structure (SMILES)	EC50
COC(=O)[C@H](CNC(=O)C(=O)Nc1ccc(OCCN2C(=O)c3ccccc3C2=O)nc1)NC(=O)c1ccc(Nc2nc(NC3(c4ccc(Cl)cc4)CC3)nc(OCC(F)(F)F)n2)cc1 [Compound 3682]	0.31 nM

Same assay, conditions: Hepatitis C virus, Huh-7, 48 h, read-out: Activity (EC50 class), HCV pseudoparticle infection of Huh7 cells, luciferase 2 days after infection; EC50 expressed as class A/B

Structure (SMILES)	EC50
CCCNC(=O)C(NC(=O)c1ccc(Nc2nc(NC3(c4ccc(Cl)cc4)CC3)nc(OCC(F)(F)F)n2)cc1)C1CCCN(C(=O)C(N)=O)C1 (stereo not drawn) [Compound 1019, N-(1-(1-(2-amino-2-oxoacetyl)piperidin-3-yl)-2-oxo-2-(propylamino)ethyl)-4-(4-(1-(4-chlorophenyl)cyclopropylamino)-6-(2,2,2-trifluoroethoxy)-1,3,5-triazin-2-ylamino)benzamide]	0.01 to 10 nM
COC(=O)[C@H](CCNC(=O)C(=O)NC1CCC(C)CC1)NC(=O)c1ccc(Nc2nc(NC3(c4ccc(Cl)cc4)CC3)nc(OCC(F)(F)F)n2)cc1 (stereo partly drawn) [Compound 1109]	0.01 to 10 nM
CC1CC(NC(=O)C(=O)NCC[C@H](NC(=O)c2ccc(Nc3nc(NC4(c5ccc(Cl)cc5)CC4)nc(OCC(F)(F)F)n3)cc2)C(=O)O)CC(C)(C)C1 (stereo partly drawn) [Compound 1127]	0.01 to 10 nM
O=C(NCC1CC1)C(=O)NC[C@H](NC(=O)c1ccc(Nc2nc(NC3(c4ccc(Cl)cc4)CC3)nc(OCC(F)(F)F)n2)cc1)C(=O)O [Compound 1467]	0.01 to 10 nM
COC(=O)[C@H](CCNC(=O)C(=O)NC1CCCCC1)NC(=O)c1ccc(Nc2nc(NC3(c4ccc(Cl)cc4)CC3)nc(OCC(F)(F)F)n2)cc1 [Compound 1140]	0.01 to 10 nM
CNC(=O)C(=O)NCC[C@H](NC(=O)c1ccc(Nc2nc(NC3(c4ccc(Cl)cc4)CC3)nc(OCC(F)(F)F)n2)cc1)C(=O)O [Compound 1014, (S)-2-(4-(4-(1-(4-chlorophenyl)cyclopropylamino)-6-(2,2,2-trifluoroethoxy)-1,3,5-triazin-2-ylamino)benzamido)-4-(2-(methylamino)-2-oxoacetamido)butanoic acid]	0.01 to 10 nM
COC(=O)[C@H](CCNC(=O)C(=O)NCC1CC1)NC(=O)c1ccc(Nc2nc(NC3(c4ccc(Cl)cc4)CC3)nc(OCC(F)(F)F)n2)cc1 [Compound 1196]	0.01 to 10 nM
COC(=O)[C@H](CNC(=O)C(=O)NC1CCCCC1O)NC(=O)c1ccc(Nc2nc(NC3(c4ccc(Cl)cc4)CC3)nc(OCC(F)(F)F)n2)cc1 (stereo partly drawn) [Compound 1051]	0.01 to 10 nM
COC(=O)[C@H](CNC(=O)C(=O)Nc1ccn(C)n1)NC(=O)c1ccc(Nc2nc(NC3(c4ccc(Cl)cc4)CC3)nc(OCC(F)(F)F)n2)cc1 [Compound 1244]	0.01 to 10 nM
CCOC(=O)[C@H](CCNC(=O)C(=O)N(C)C)NC(=O)c1ccc(Nc2nc(NC3(c4ccc(Cl)cc4)CC3)nc(OCC(F)(F)F)n2)cc1 [Compound 1026, (S)-ethyl 2-(4-(4-(1-(4-chlorophenyl)cyclopropylamino)-6-(2,2,2-trifluoroethoxy)-1,3,5-triazin-2-ylamino)benzamido)-4-(2-(dimethylamino)-2-oxoacetamido)butanoate]	0.01 to 10 nM
COc1ccc(CNC(=O)C(=O)NC[C@H](NC(=O)c2ccc(Nc3nc(NC4(c5ccc(Cl)cc5)CC4)nc(OCC(F)(F)F)n3)cc2)C(=O)O)c(OC)c1 [Compound 1172]	0.01 to 10 nM
O=C(NCC[C@@H](NC(=O)c1ccc(Nc2nc(NC3(c4ccc(Cl)cc4)CC3)nc(OCC(F)(F)F)n2)cc1)C(=O)O)C(=O)Nc1ccc(Cl)cc1 [Compound 1555]	0.01 to 10 nM
CC(CNC(=O)C(=O)NC[C@H](NC(=O)c1ccc(Nc2nc(NC3(c4ccc(Cl)cc4)CC3)nc(OCC(F)(F)F)n2)cc1)C(=O)O)c1ccccc1 (stereo partly drawn) [Compound 1395]	0.01 to 10 nM

Same assay, conditions: Hepatitis C virus, Huh-7, 48 h, read-out: Activity (EC50 class), HCV pseudoparticles, Huh7 cells, luciferase 2 days after infection; average of duplicates

Structure (SMILES)	EC50
Cc1cccc2sc(NC(=O)C(=O)NCC(C)(C)CNC(=O)c3ccc(Nc4nc(NC5(c6ccc(Cl)cc6)CC5)nc(OCC(F)(F)F)n4)cc3)nc12 [Compound 3805]	0.01 to 10 nM
COC(=O)[C@H](CNC(=O)C(=O)Nc1ccc(OCCN2C(=O)c3ccccc3C2=O)nc1)NC(=O)c1ccc(Nc2nc(NC3(c4ccc(Cl)cc4)CC3)nc(OCC(F)(F)F)n2)cc1 [Compound 3682]	0.01 to 10 nM
CS(=O)(=O)c1cccc(NC(=O)C(=O)NC[C@H](NC(=O)c2ccc(Nc3nc(NC4(c5ccc(Cl)cc5)CC4)nc(OCC(F)(F)F)n3)cc2)C(=O)O)c1 [Compound 3763]	0.01 to 10 nM
COc1cc(NC(=O)C(=O)NCC(C)(C)CNC(=O)c2ccc(Nc3nc(NC4(c5ccc(Cl)cc5)CC4)nc(OCC(F)(F)F)n3)cc2)ccc1-c1ccccc1 [Compound 3679]	0.01 to 10 nM
Cc1ccc(NC(=O)C(=O)NCC(C)(C)CNC(=O)c2ccc(Nc3nc(NC4(c5ccc(Cl)cc5)CC4)nc(OCc4ccccc4Cl)n3)cc2)cc1 [Compound 3850]	0.01 to 10 nM
CNS(=O)(=O)c1cccc(NC(=O)C(=O)NC[C@H](NC(=O)c2ccc(Nc3nc(NC4(c5ccc(Cl)cc5)CC4)nc(OCC(F)(F)F)n3)cc2)C(=O)OC)c1 [Compound 3727]	0.01 to 10 nM

Same assay, conditions: Hepatitis C virus, Huh-7, read-out: Activity (EC50 class), HCV pseudoparticles (genotype 1a, H77C) in Huh7 cells; EC50 expressed as class A/B

Structure (SMILES)	EC50
O=C(NCCCCNC(=O)c1ccc(Nc2nc(NC3(c4ccc(Cl)cc4)CC3)nc(OCC(F)(F)F)n2)cc1)C(=O)Nc1ccccc1 [Compound 3403]	0.01 to 10 nM
COC(=O)[C@H](CCNC(=O)C(=O)Nc1ccc(-n2cnnn2)cc1)NC(=O)c1ccc(Nc2nc(NC3(c4ccc(Cl)cc4)CC3)nc(OCC(F)(F)F)n2)cc1 [Compound 3308]	0.01 to 10 nM
CC(C)(CNC(=O)c1ccc(Nc2nc(NC3(c4ccc(Cl)cc4)CC3)nc(OCC(F)(F)F)n2)cc1)NC(=O)C(=O)Nc1nccs1 [Compound 3437]	0.01 to 10 nM
O=C(NC/C(=N/C(=O)c1ccc(Nc2nc(NC3(c4ccc(Cl)cc4)CC3)nc(OCC(F)(F)F)n2)cc1)C(=O)O)C(=O)Nc1ccc(N2CCCC2=O)cc1 [Compound 3165]	0.01 to 10 nM
COC(=O)[C@H](CNC(=O)C(=O)Nc1ccc(OC2CCOCC2)cc1)NC(=O)c1ccc(Nc2nc(NC3(c4ccc(Cl)cc4)CC3)nc(OCC(F)(F)F)n2)cc1 [Compound 3208]	0.01 to 10 nM
COC(=O)[C@H](CCNC(=O)C(=O)Nc1ccc(Oc2cccnc2)cc1)NC(=O)c1ccc(Nc2nc(NC3(c4ccc(Cl)cc4)CC3)nc(OCC(F)(F)F)n2)cc1 [Compound 3324]	0.01 to 10 nM
CCOCCOc1ccc(NC(=O)C(=O)NCCC(NC(=O)c2ccc(Nc3nc(NC4(c5ccc(Cl)cc5)CC4)nc(OCC(F)(F)F)n3)cc2)C(=O)O)cc1 (stereo not drawn) [Compound 3530]	0.01 to 10 nM
CC(CNC(=O)C(=O)Nc1ccc(F)cc1F)CNC(=O)c1ccc(Nc2nc(NC3(c4ccc(Cl)cc4)CC3)nc(OCC(F)(F)F)n2)cc1 (stereo not drawn) [Compound 3473]	0.01 to 10 nM
CC(C)(CNC(=O)C(=O)Nc1cccc(C(=O)c2cccc(N)c2)c1)CNC(=O)c1ccc(Nc2nc(NC3(c4ccc(Cl)cc4)CC3)nc(OCC(F)(F)F)n2)cc1 [Compound 3400]	0.01 to 10 nM
CC(C)(CNC(=O)C(=O)Nc1ncco1)CNC(=O)c1ccc(Nc2nc(NC3(c4ccc(Cl)cc4)CC3)nc(OCC(F)(F)F)n2)cc1 [Compound 3027]	0.01 to 10 nM
C=C(C)c1ccccc1NC(=O)C(=O)NCC(C)(C)CNC(=O)c1ccc(Nc2nc(NC3(c4ccc(Cl)cc4)CC3)nc(OCC(F)(F)F)n2)cc1 [Compound 3140]	0.01 to 10 nM
O=C(NC/C(=N/C(=O)c1ccc(Nc2nc(NC3(c4ccc(Cl)cc4)CC3)nc(OCC(F)(F)F)n2)cc1)C(=O)O)C(=O)Nc1ccc(OCC(F)(F)F)cc1 [Compound 3164]	0.01 to 10 nM
COC(=O)[C@@H](CCNC(=O)C(=O)Nc1ccc(Oc2ccc(C(C)(C)C)cc2)nc1)NC(=O)c1ccc(Nc2nc(NC3(c4ccc(Cl)cc4)CC3)nc(OCC(F)(F)F)n2)cc1 [Compound 3581]	0.01 to 10 nM
CCc1ccc(NC(=O)C(=O)NC[C@H](NC(=O)c2ccc(Nc3nc(NC4(c5ccc(Cl)cc5)CC4)nc(OCC(F)(F)F)n3)cc2)C(=O)OC)cc1 [Compound 3213]	0.01 to 10 nM
COC(=O)[C@H](CCNC(=O)C(=O)Nc1ccc(OC2CCOCC2)cc1)NC(=O)c1ccc(Nc2nc(NC3(c4ccc(Cl)cc4)CC3)nc(OCC(F)(F)F)n2)cc1 [Compound 3325]	0.01 to 10 nM
COC(=O)[C@H](CNC(=O)C(=O)Nc1ccc(Cc2ccncc2)cc1)NC(=O)c1ccc(Nc2nc(NC3(c4ccc(Cl)cc4)CC3)nc(OCC(F)(F)F)n2)cc1 [Compound 3094]	0.01 to 10 nM
COC(=O)[C@H](CNC(=O)C(=O)Nc1ccc(Cn2ccnc2C)cc1)NC(=O)c1ccc(Nc2nc(NC3(c4ccc(Cl)cc4)CC3)nc(OCC(F)(F)F)n2)cc1 [Compound 3204]	0.01 to 10 nM
Cc1ccc(-c2ccccc2NC(=O)C(=O)NCC(C)(C)CNC(=O)c2ccc(Nc3nc(NC4(c5ccc(Cl)cc5)CC4)nc(OCC(F)(F)F)n3)cc2)o1 [Compound 3240]	0.01 to 10 nM
Cc1ccc(NC(=O)C(=O)N(C)CCCN(C)C(=O)c2ccc(Nc3nc(NC4(c5ccc(Cl)cc5)CC4)nc(OCC(F)(F)F)n3)cc2)cc1 [Compound 3406]	0.01 to 10 nM
Cc1ccc(NC(=O)C(=O)NCC(C)(C)CNC(=O)c2ccc(Nc3nc(NC4(c5ccc(Cl)cc5)CC4)nc(OCC(F)(F)F)n3)cc2F)cc1 [Compound 3554]	0.01 to 10 nM
O=C(NC[C@H](NC(=O)c1ccc(Nc2nc(NC3(c4ccc(Cl)cc4)CC3)nc(OCC(F)(F)F)n2)cc1)C(=O)O)C(=O)Nc1ccc(-c2c[nH]c(N3CCOCC3)n2)cc1 [Compound 3284]	0.01 to 10 nM
COc1ccc(-c2ccccc2NC(=O)C(=O)NCC(C)(C)CNC(=O)c2ccc(Nc3nc(NC4(c5ccc(Cl)cc5)CC4)nc(OCC(F)(F)F)n3)cc2)cc1 [Compound 3065]	0.01 to 10 nM
CC(C)(CNC(=O)c1ccc(Nc2nc(NC3(c4ccc(Cl)cc4)CC3)nc(OCC(F)(F)F)n2)cc1)NC(=O)C(=O)N1CCCCC1 [Compound 3439]	0.01 to 10 nM
COC(=O)[C@H](CNC(=O)C(=O)Nc1ccc(-n2cccn2)cc1)NC(=O)c1ccc(Nc2nc(NC3(c4ccc(Cl)cc4)CC3)nc(OCC(F)(F)F)n2)cc1 [Compound 3108]	0.01 to 10 nM
CC(C)(CNC(=O)C(=O)Nc1ccccc1-n1ccnc1)CNC(=O)c1ccc(Nc2nc(NC3(c4ccc(Cl)cc4)CC3)nc(OCC(F)(F)F)n2)cc1 [Compound 3180]	0.01 to 10 nM
